US8343934B2, “Diverse lead compound autotaxin inhibitors” (University of Memphis, priority 2009, dated 2013)
Where a SMILES comes first, the peptide text is derived from it. [ ]: non-standard residue; d: D form. Phe(4-Cl) = N[CH](Cc1ccc(Cl)cc1)C(=O)O; 3Pal = N[CH](Cc1cccnc1)C(=O)O

Target: T1, ATX (Homo sapiens, UniProt Q13822)
T1 construct: conditioned serum-free medium (CCM) from MDA-MB-435 cells as the source of ATX; endogenous in cells; host or cells: MDA-MB-435 cells (about 10x concentrated conditioned serum-free medium)
Experiment: ATX inhibition assay (FS-3 substrate)
Type: biochemical
Settings: for % Response: preliminary screen, FS-3 hydrolysis at one hour, normalized to vehicle control, mean±S.D., same values given at 10 μM in Table 5
Procedure: ATX inhibition was assayed using the substrate FS-3 (Echelon Biosciences, Inc., Salt Lake City, Utah, USA). The FS-3 assay used ˜10 times concentrated conditioned serum-free medium (CCM) from MDA-MB-435 cells as the source of ATX, while CCM comprised one-third of the total volume. The final volume for FS-3 was comprised of the substrate at varying concentrations and 30 μM charcoal-stripped fatty acid free BSA (Sigma Aldrich) in assay buffer (1 mM each CaCl2 and MgCl2, 5 mM KCl, 140 mM NaCl, 50 mM Tris pH 8.0).
All assays were performed in 96-well plates with data read at 1 minute intervals by a Synergy2 system (BioTek, Winooski, Vt.). The fluorescence produced upon the hydrolysis of FS-3 was monitored using an excitation wavelength of 485 nm and an emission wavelength of 528 nm at 37° C. (Ferguson et al., 2006). […] All readings were normalized to vehicle control after subtraction of fluorescence in the absence of CCM. Data are shown as the mean±S.D. of at least three wells.

[1] = Calculated IC50 data for the 30 active compounds, FS-3 substrate

| Structure (SMILES) | IC50 [1] [µM] | % Response [%] | other results |
| --- | --- | --- | --- |
| O=C(Nc1ccc2c(O)c(N=Nc3ccccc3)c(S(=O)(=O)O)cc2c1)Nc1ccc2c(O)c(N=Nc3ccc4cc(S(=O)(=O)O)ccc4c3)c(S(=O)(=O)O)cc2c1.[H-].[Na+] [compound 65573] | 19.1 | 39 ± 3.8 | – |
| Nc1c(N=Nc2ccc([N+](=O)[O-])cc2)c(S(=O)(=O)O)cc2cc(S(=O)(=O)O)c(N=Nc3ccc(-c4ccc(N=Nc5c(S(=O)(=O)O)cc6cc(S(=O)(=O)O)c(N=Nc7ccc([N+](=O)[O-])cc7)c(N)c6c5O)cc4)cc3)c(O)c12.[Na+] [compound 65869] | 22.7 | 46 ± 6.7 | – |
| O=C(O)c1ccccc1-c1c2ccc(=Nc3ccccc3)cc-2oc2cc(Nc3ccc(S(=O)(=O)O)cc3)ccc12.[Na+] [compound 11242] | – | 73 ± 3.7 | – |
| Cc1ccccc1N=Nc1c(S(=O)(=O)[O-])cc2cc(NC(=O)Nc3ccc4c(O)c(N=Nc5ccc6cc(S(=O)(=O)[O-])ccc6c5)c(S(=O)(=O)[O-])cc4c3)ccc2c1O.[Na+].[Na+].[Na+] [compound 58057] | 11.6 | 29 ± 3.6 | – |
| O=C(N/N=C/c1ccc(O)c(S(=O)(=O)O)c1)C(=O)N/N=C/c1ccc(O)c(S(=O)(=O)O)c1.[Na+] [compound 55736] | – | 95 ± 3.9 | – |
| COc1ccc(C(=O)Nc2ccc(/C=C/c3ccc(NC(=O)c4ccc(OC)cc4)cc3S(=O)(=O)O)c(S(=O)(=O)O)c2)cc1.[Na+] [compound 12858] | – | 98 ± 7.4 | – |
| Nc1ccc(N=Nc2ccc(-c3ccc(N=Nc4c(S(=O)(=O)O)cc5cc(S(=O)(=O)O)c(N=Nc6ccc([N+](=O)[O-])cc6)c(N)c5c4O)cc3)cc2)c(N)c1.[Na+] [compound 65848] | 15.2 | 48 ± 4.8 | – |
| Nc1ccc2cc(S(=O)(=O)O)c(/N=N/c3ccc(-c4ccc(/N=N/c5c(S(=O)(=O)O)cc6cc(S(=O)(=O)O)cc(N)c6c5O)cc4)cc3)c(O)c2c1 [NSC 75779] | – | – | % ATX Acitivity (10 μM) (10 μM compound, FS-3 substrate): 20 ± 5.7%; IC50 (Table 5, FS-3 substrate): 1.26 µM |
| CC(=O)NC(Cc1ccc(Cl)cc1)C(=O)NC(Cc1ccc(Cl)cc1)C(=O)NC(Cc1cccnc1)C(=O)NC(CO)C(=O)NC(Cc1ccc(O)cc1)C(=O)NC(CCCN=C(N)N)C(=O)NC(CC(C)C)C(=O)NC(CCCN=C(N)N)C(=O)N1CCCC1C(=O)NC(C)C(=O)O (stereo not drawn) [compound 373963] (Ac-[Phe(4-Cl)][Phe(4-Cl)][3Pal]SYRLRPA-OH; configuration not given here) | – | 96 ± 2.5 | – |
| O=C(N/N=C\c1ccc(O)c(S(=O)(=O)O)c1)N/N=C/c1ccc(O)c(S(=O)(=O)O)c1.[Na+] [compound 48776] | – | 94 ± 3.5 | – |
| O=C(Nc1ccc(C(=O)Nc2ccc3c(O)cc(S(=O)(=O)O)cc3c2)cc1)c1ccccc1.[Na+] [compound 37215] | – | 79 ± 3.7 | – |
| Cc1ccccc1N=C(N)Nc1ccccc1C.Nc1c(N=Nc2ccc([N+](=O)[O-])cc2)c(S(=O)(=O)O)cc2cc(S(=O)(=O)O)c(N=Nc3ccc(Sc4ccc(N=Nc5ccc(O)cc5)cc4)cc3)c(O)c12 [compound 80902] | – | 73 ± 4.5 | – |
| Nc1c(N=Nc2ccc([N+](=O)[O-])cc2)c(S(=O)(=O)O)cc2cc(S(=O)(=O)O)c(N=Nc3ccc(-c4ccc(O)cc4)cc3)c(O)c12.[Na+] [compound 65560] | – | 56 ± 4.9 | – |
| Cc1cc(N)ccc1N=Nc1ccc(-c2ccc(N=Nc3c(S(=O)(=O)O)cc4cc(S(=O)(=O)O)c(N=Nc5ccc([N+](=O)[O-])cc5)c(N)c4c3O)cc2)cc1.[Na+] [compound 65851] | 9.5 | 42 ± 3.5 | – |
| O=C(NC(CSSCC(NC(=O)c1ccc([N+](=O)[O-])cc1)C(=O)O)C(=O)O)c1ccc([N+](=O)[O-])cc1 (stereo not drawn) [compound 2532] | – | 95 ± 5.7 | – |
| COc1cc(N=Nc2c(S(=O)(=O)O)cc3cc(NC(=O)Nc4ccc5c(O)c(N=Nc6ccc7cc(S(=O)(=O)O)ccc7c6)c(S(=O)(=O)O)cc5c4)ccc3c2O)c(C)cc1N [compound 58058] | 13.8 | 30 ± 4.9 | – |

| Structure (SMILES) | IC50 [1] [µM] | % Response [%] | other results |
| --- | --- | --- | --- |
| O=C1C(c2[nH]c3ccc(S(=O)(=O)O)cc3c2O)=Nc2ccc(S(=O)(=O)O)cc21 [compound 8646] | – | 88 ± 9.2 | – |
| Nc1ccc(C(=O)Nc2ccc(C(=O)Nc3ccc4c(O)cc(S(=O)(=O)O)cc4c3)cc2)cc1 [compound 1741] | – | 60 ± 4.6 | – |
| NC(=N\N=C/c1ccccc1S(=O)(=O)O)/C(N)=N\N=C/c1ccccc1S(=O)(=O)O.[Na+] [compound 47471] | – | 95 ± 3.0 | – |
| CN(C)C1C(=O)C(C(=O)NCNc2cccc(C(=O)O)c2C(=O)O)=C(O)C2(O)C(=O)C3=C(O)c4c(O)cccc4[C@](C)(O)[C@@H]3C[C@H]12 (stereo partly drawn) [compound 43891] | 13.9 | 32 ± 9.1 | – |
| O=C(CC(C(=O)O)S(=O)(=O)O)Nc1ccc(S(=O)(=O)c2ccc(NC(=O)CC(C(=O)O)S(=O)(=O)O)cc2)cc1.[Na+] (stereo not drawn) [compound 2460] | – | 99 ± 3.1 | – |
| Cc1ccc(N=Nc2c(S(=O)(=O)[O-])cc3cc(NC(=O)Nc4ccc5c(O)c(N=Nc6ccc7cc(S(=O)(=O)[O-])ccc7c6)c(S(=O)(=O)[O-])cc5c4)ccc3c2O)c(C)c1.[Na+].[Na+].[Na+] [compound 65575] | 18.6 | 33 ± 3.7 | – |
| O=C(O)c1ccccc1N=N/C(=N\Nc1cc(S(=O)(=O)O)ccc1O)c1ccccc1 [compound 5359] | – | 94 ± 2.6 | – |
| CCOc1ccc(N=c2ccc3c(-c4c(Cl)ccc(Cl)c4C(=O)O)c4ccc(Nc5ccc(OCC)cc5S(=O)(=O)O)cc4oc-3c2)cc1.[Na+] [compound 8682] | – | 52 ± 7.7 | – |
| O=C(O)c1ccc(C(=O)NCCCN(CCCCN(CCCNC(=O)c2ccc(C(=O)O)c(O)c2O)C(=O)c2ccc(C(=O)O)c(O)c2O)C(=O)c2ccc(C(=O)O)c(O)c2O)c(O)c1O.[Na+] [compound 338310] | 7.96 | 24 ± 2.9 | – |
| Cc1cc(S(=O)(=O)O)ccc1N=c1ccc2c(-c3ccccc3C(=O)[O-])c3ccc(Nc4ccccc4C)cc3oc-2c1.[Na+] [compound 11246] | 10.2 | 42 ± 6.0 | – |
| NC(=N\N=C/c1ccc(O)c(S(=O)(=O)O)c1)/C(N)=N\N=C/c1ccc(O)c(S(=O)(=O)O)c1.[Na+] [compound 47470] | – | 90 ± 3.2 | – |
| O=S(=O)(c1ccc(NC(C(O)C(O)C(O)C(O)CO)S(=O)(=O)O)cc1)c1ccc(NC(C(O)C(O)C(O)C(O)CO)S(=O)(=O)O)cc1 (stereo not drawn) [compound 36701] | – | 98 ± 3.7 | – |
| O=C(Nc1ccc(C(=O)Nc2cc(S(=O)(=O)O)cc3cccc(S(=O)(=O)O)c23)cc1)Nc1ccc(C(=O)Nc2cc(S(=O)(=O)O)cc3cccc(S(=O)(=O)O)c23)cc1.[Na+] [compound 12188] | – | 105 ± 8.0 | – |
| Nc1cccc(N=Nc2c(S(=O)(=O)[O-])cc3cc(Nc4ccc5c(O)c(N=Nc6cccc(N)c6)c(S(=O)(=O)[O-])cc5c4)ccc3c2O)c1.[Na+].[Na+] [compound 51533] | – | 67 ± 4.0 | – |
| O=C(COc1ccc(Cl)cc1C(=O)O)NCc1cccc(NC(=O)Nc2ccc(S(=O)(=O)F)cc2)c1 [compound 212086] | – | 95 ± 4.3 | – |
